Measurements as given in patent US10640507B2, “PBD antibacterial agents” (KING'S COLLEGE LONDON, priority 2015, dated 2020).

Legend:
K. pneumonia - M6 = test: Time kill kinetics; format: cell-based; details: drug at 4×MIC
Description: 1. Grow bacteria overnight.
2. Subculture into an autoclaved conical flask containing 10 ml of TSB to an OD of 0.01 (˜1×10^7 Cfu/ml for KP-M6).
4. Take aliquots (100 μl) at timepoints (0, 1, 2, 4, 6, 24 hours) and carry out a serial dilution in PBS (to remove drug and to dilute bacteria to countable numbers).
5. Use the serial dilution to perform a Miles Misra—i.e. Add 3×10 μl spots of each dilution onto an agar plate. Incubate overnight and count colonies on spots in the morning.
6. Control: Subculture bacteria alongside samples but with no antibiotic added. Take aliquots from this at every time point (0, 1, 2, 4, 6, 24 hours) and perform Miles Misra on these too (as detailed in points 4 and 5 above).
7. After the first experiment, if the counts seen on Miles-Misra were zero, total viable counts were determined by spreading 200 μl in a streak down the centre of a TSB agar plate, waiting for the liquid to be absorbed and then spreading over the plate and checking for growth inhibition at the sight of the original streak.
8. The compound is considered bactericidal if the inoculum was reduced >3 log10 CFU/ml and bacteriostatic if inoculum was reduced by 0-3 log10 CFU/ml.
Three measurements were taken for each compound at each time point. These measurements were averaged and the standard deviation was also calculated.

[1] = system: resistant mutants of KP 13368; test: MIC following resistance development; format: cell-based, Klebsiella; details: Klebsiella, OFKP13368, read-out: MIC of resistant mutants (in brackets)
Description: General Minimum Inhibitory Concentration (MIC) Protocol
1. Grow up cultures of bacterial strains to be tested overnight.
2. Dilute down overnight cultures to concentration of 1×10^6 bacteria/ml (OD0.01) in Tryptic soy broth (TSB).
3. Add 100 μl of TSB media to column 2-column 12 in 96 well plate (keeping column 1 clear).
4. Make up compound to a concentration of 64 μg/ml in water (or alternatively to twice the chosen maximum concentration to be tested).
5. Add 100 μl of antibiotic solution to the 1st and 2nd columns.
6. Using a multichannel pipette take 100 μl from the 2nd column wells and pipette into 3rd column wells and repeat down the 96 well plate (remembering to include controls i.e. uninfected media and media with no antibiotic).
7. To each well (except uninfected control row H) add 100 μl of bacterially infected media at a concentration of 1×10^6/ml.
8. This dilutes down the concentration of the antibiotic by half (top dose is therefore 32 μg/ml in column 1) and also gives you a starting bacterial concentration of 5×10^5/ml.
9. Wrap plate with parafilm to prevent evaporation.
10. Leave at desired temperature (37° C. unless specified elsewhere) for 20 hours.
11. Next day check plates for growth and measure optical density (i.e. absorbance) at a wavelength of 600 nm (OD600).
An example of such a plate is shown in FIG. 1 where column A represents wells that receive the top dose 100 μl; column B represents wells that receive the top dose 100 μl+100 μl TSB; and column C represents wells that receive 100 μl TSB. Row H which is marked by a box labelled D represents a blank where the cells receive no bacteria.
The MIC of PP-A418 and colistin against the strains used in the time kill analysis of Example 31 following resistance development were measured. The MIC was measured using the general MIC protocol given above. The results are given in Table 14 below where the MIC values of resistant mutants are shown in the brackets.

For `COc1cc2c(cc1OCCCC(=O)Nc1cc(C(=O)Nc3ccc4sc(C(=O)N(C)C)cc4c3)n(C)c1)N=C[C@@H]1CCCN1C2=O` [KMR-14-33, (S)—N-(2-(dimethylcarbamoyl)benzo[b]thiophen-5-yl)-4-(4-((7-methoxy-5-oxo-2,3,5,11a-tetrahydro-1H-benzo[e]pyrrolo[1,2-a][1,4]-diazepin-8-yl)oxy)butanamido)-1-methyl-1H-pyrrole-2-carboxamide], the “Average (Log CFU/ml)” value (K. pneumonia - M6; time-point 1 hours) was 2667 CFU/ml, the “n = 1 (Log CFU/ml)” value (K. pneumonia - M6; time-point 1 hours) was 3000 CFU/ml and the “n = 2 (Log CFU/ml)” value (K. pneumonia - M6; time-point 1 hours) was 3000 CFU/ml. The “n = 3 (Log CFU/ml)” value (K. pneumonia - M6; time-point 1 hours) was 2000 CFU/ml, the “Average (Log CFU/ml)” value (K. pneumonia - M6; time-point 2 hours) was 0 CFU/ml and the “n = 2 (Log CFU/ml)” value (K. pneumonia - M6; time-point 2 hours) was 0 CFU/ml. The “n = 3 (Log CFU/ml)” value (K. pneumonia - M6; time-point 2 hours) was 0 CFU/ml, the viable count (K. pneumonia - M6; time-point 2 hours) was 0 CFU/mL and the “Average (Log CFU/ml)” value (K. pneumonia - M6; time-point 4 hours) was 0 CFU/ml. The “n = 2 (Log CFU/ml)” value (K. pneumonia - M6; time-point 4 hours) was 0 CFU/ml, the “n = 3 (Log CFU/ml)” value (K. pneumonia - M6; time-point 4 hours) was 0 CFU/ml and the viable count (K. pneumonia - M6; time-point 4 hours) was 0 CFU/mL. The “Average (Log CFU/ml)” value (K. pneumonia - M6; time-point 6 hours) was 0 CFU/ml, the “n = 2 (Log CFU/ml)” value (K. pneumonia - M6; time-point 6 hours) was 0 CFU/ml and the “n = 3 (Log CFU/ml)” value (K. pneumonia - M6; time-point 6 hours) was 0 CFU/ml. The viable count (K. pneumonia - M6; time-point 6 hours) was 0 CFU/mL, the “Average (Log CFU/ml)” value (K. pneumonia - M6; time-point 24 hours) was 0 CFU/ml and the “n = 2 (Log CFU/ml)” value (K. pneumonia - M6; time-point 24 hours) was 0 CFU/ml. For the same compound, the “n = 3 (Log CFU/ml)” value (K. pneumonia - M6; time-point 24 hours) was 0 CFU/ml and the viable count (K. pneumonia - M6; time-point 24 hours) was 0 CFU/mL.

Work on `COc1cc2c(cc1OCCCC(=O)Nc1cc(C(=O)Nc3ccc4oc(C(=O)N5CCSCC5)cc4c3)n(C)c1)N=C[C@@H]1CCCN1C2=O` [PP-A148, (S)-4-(4-((7-methoxy-5-oxo-2,3,5,11a-tetrahydro-1H-benzo-[e]pyrrolo[1,2-a][1,4]diazepin-8-yl)oxy)butanamido)-1-methyl-N-(2-(thiomorpholine-4-carbonyl)benzofuran-5-yl)-1H-pyrrole-2-carboxamide] yielded an MIC [1] of over 128 µg/mL.
